Patent US20240287046A1, “COMPOUNDS AND RADIOLIGANDS FOR TARGETING NEUROTENSIN RECEPTOR AND USES THEREOF” (Full-Life Technologies HK Limited, priority 2022, published 2024)

Columns and labels:
[1] = biological target: T1, human NTSR-1 (Homo sapiens (Human), UniProt P30989); experiment: radioligand competitive binding assay using ^177Lu labeled C-1 as reference radioligand; settings: for Relative Binding Affinity: Mean IC50 of C-1/Mean IC50 of the test compound; for IC50: Nonlin fit, single assay, HT-29 cells; for binding affinity compared to comparator compound C-1 or C-3: single radioligand competitive binding assay
Description: The binding affinities of test compounds were determined by a radioligand competitive binding assay using ^177Lu labeled C-1 as the reference radioligand.
Briefly, 100 μL HT-29 cells expressing human NTSR-1 at a density of 1˜2×10^6 cells/mL were mixed with binding buffer (RPMI-1640 medium supplemented with 0.25% bovine serum albumin) in each well of the 96-well filter plate (Millipore). Then the cells in each well were incubated with ^177Lu—C-1 (0.55 μCi/well) and the test compound under 37° C. for 1 hr (n=3). After incubation, unbound ^177Lu—C-1 and the test compound in each well was removed by filtration using a Multiscreen vacuum manifold (Millipore) and the cells were further rinsed with the binding buffer for 5 times. The cells from each well were then collected and radioactivity of the cells in each well was individually measured by y counter (2480 WIZARD2, PerkinElmer). The best-fit IC50 value of test compounds (inhibitory concentration when 50% of the bound ^177Lu—C-1 on cells were displaced) were calculated by fitting the data with nonlinear regression using GraphPad Prism 8.0.1.

[2] = system: ASPC-1 tumor-bearing mice; experiment: Biodistribution of radionuclide labeled complexes in ASPC-1 tumor-bearing mice; assay type: in vivo, BALB/c nude mice; settings: ^177Lu-labeled complex
Description: The BALB/c nude mice (Charles River, Beijing) were utilized to establish the xenografted model for biodistribution study. All animal care and experimental procedure were performed by following the animal protocols approved by the ethics committee of China Institute of Radiation Protection.
Briefly, each mouse was inoculated with approximately 4×10^6 ASPC-1 cells (human pancreatic cancer cell line) or HT-29 cells (human colorectal adenocarcinoma cell line) expressing human NTSR-1 by subcutaneous injection at rear flank. After inoculation, the xenografted tumors were allowed to grow for ˜2-4 weeks till the tumor weight reached to about 0.05 to 0.50 g (0.20 g in average).
Biodistribution studies were performed by administrating the radionuclide labeled test compound at a dose of ˜30-50 μCi (100 μL in 0.9% NaCl, ˜1.11-1.85 MBq, with specific activity 30-250 μCi/nmol) to each animal through tail vein injection.
At different time points after the administration, the mice treated with each compound were euthanized. The tissues and organs of the animals in each group were collected, excised, weighed, and analyzed in a PerkinElmer 2480 WIZARD2γ counter, and the percent injected dose (% ID) and % ID/g of each organ or tissue were calculated.

[3] = biological target: T1, human NTSR-1; experiment: FLIPR assay, inhibition of Neurotensin-induced intracellular-calcium mobilization; assay type: cell-based
Description: Binding affinities of the representative compounds were also evaluated by FLIPR assay. Neurotensin receptor 1 belongs to the G-protein coupled receptors (GPCR) family. Activation of NTSR-1 by its ligand Neurotensin can induce intracellular-calcium mobilization. In FLIPR assay, the test compound and Neurotensin were incubated together with cells expressing NTSR-1 to measure inhibition of the intracellular-calcium mobilization by the test compound so that to evaluate its binding affinity.
Briefly, HEK293 cells stably expressing human NTSR-1 were plated in 384-well plates. 20 ul cell suspension at a concentration of 10×10^5 per ml was seeded in each well and incubated at 37° C. 5% CO2 overnight. Then the cells in each well were mixed with 20 ul probenecid assay buffer, 20 ul 8 uM Fluo-4 Direct™ Loading Buffer, 6×EC80 of Neurotensin and 10 μl of the diluted test compound, and incubated at 37° C. 5% CO2 for 50 min followed by incubation at room temperature for 10 min. The plate was then subject to FLIPR analysis.

[4] = read-out: LogIC50 Mean (converted)

T1 sequence (P30989 whole entry): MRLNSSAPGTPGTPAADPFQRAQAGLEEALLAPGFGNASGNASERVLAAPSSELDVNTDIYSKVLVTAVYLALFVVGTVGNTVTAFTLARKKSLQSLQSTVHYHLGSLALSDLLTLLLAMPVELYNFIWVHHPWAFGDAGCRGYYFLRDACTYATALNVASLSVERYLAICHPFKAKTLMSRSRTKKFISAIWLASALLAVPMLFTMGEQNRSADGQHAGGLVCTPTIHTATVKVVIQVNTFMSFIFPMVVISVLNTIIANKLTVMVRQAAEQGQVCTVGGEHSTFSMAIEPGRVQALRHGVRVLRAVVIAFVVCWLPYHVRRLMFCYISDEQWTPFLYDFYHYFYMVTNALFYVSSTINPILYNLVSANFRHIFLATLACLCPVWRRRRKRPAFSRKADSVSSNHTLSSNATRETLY

## CC(=O)N[C@@H](CCCCNC(=O)CN1CCN(CC(=O)O)CCN(CC(=O)O)CCN(CC(=O)O)CC1)C(=O)N1CCC[C@H]1C(=O)N(C)[C@@H](CCCNC(=N)N)C(=O)N[C@@H](CCCNC(=N)N)C(=O)N1CCC[C@H]1C(=O)N[C@@H](Cc1ccc(O)cc1)C(=O)N[C@H](C(=O)N[C@@H](CC(C)C)C(=O)O)C(C)(C)C [Compound C-1, reference compound]
[1]
  Relative Binding Affinity: 1.00
[1]; read-out: IC50 (nM) Mean
  IC50: 40.3 nM
[1]; [4]
  IC50: 40.4 nM

## COc1cccc(OC)c1-c1cc(C(=O)NC2(C(=O)O)C3CC4CC(C3)CC2C4)nn1-c1ccc(N(CCCN(C)C)C(C)=O)cc1C(C)C (centres unmarked) [Compound C-4, reference compound]
[1]
  Relative Binding Affinity: 22.0

## COc1cccc(OC)c1-c1cc(C(=O)NC2(C(=O)O)C3CC4CC(C3)CC2C4)nn1-c1ccc(N(C)CCCN(C)CCCN(C)C(=O)CN2CCN(CC(=O)O)CCN(CC(=O)O)CCN(CC(=O)O)CC2)cc1C(C)C (centres unmarked) [Compound I-1, 2,2′,2″-(10-(2-((3-((3-((4-(3-((2-carboxyadamantan-2-yl)carbamoyl)-5-(2,6-dimethoxyphenyl)-1H-pyrazol-1-yl)-3-isopropylphenyl)(methyl)amino)propyl)(methyl)amino)propyl)(methyl)amino)-2-oxoethyl)-1,4,7,10-tetraazacyclododecane-1,4,7-triyl)triacetic acid]
[2]
  AUC (0-72 h) ratio Tumor/Blood: 36.5
  AUC (0-72 h) ratio Tumor/Kidney: 5.6
  AUC (0-72 h) ratio Tumor/Liver: 12.8
  AUC (0-72 h) ratio Tumor/Lung: 39.3
[1]
  Relative Binding Affinity: 82.6
  binding affinity compared to comparator compound C-1 or C-3: higher binding affinity
[1]; read-out: IC50 (nM) Mean
  IC50: 0.465 nM
[1]; [4]
  IC50: 0.465 nM

## COc1cccc(OC)c1-c1cc(C(=O)NC2(C(=O)O)C3CC4CC(C3)CC2C4)nn1-c1ccc(NCCCN(C)CCCNC(=O)CN2CCN(CC(=O)O)CCN(CC(=O)O)CCN(CC(=O)O)CC2)cc1C(C)C (centres unmarked) [Compound I-2, 2,2′,2″-(10-(2-((3-((3-((4-(3-((−2-carboxyadamantan-2-yl)carbamoyl)-5-(2,6-dimethoxyphenyl)-1H-pyrazol-1-yl)-3-isopropylphenyl)amino)propyl)(methyl)amino)propy)amino)-2-oxoethyl)-1,4,7,10-tetraazacyclododecane-1,4,7-triyl)triacetic acid]
[2]
  AUC (0-72 h) ratio Tumor/Blood: 12.5
  AUC (0-72 h) ratio Tumor/Kidney: 10.4
  AUC (0-72 h) ratio Tumor/Liver: 10.6
  AUC (0-72 h) ratio Tumor/Lung: 39.4
[1]; read-out: IC50 (nM) Mean
  IC50: 0.559 nM
[1]; [4]
  IC50: 0.558 nM

## COc1cccc(OC)c1-c1cc(C(=O)NC2(C(=O)O)C3CC4CC(C3)CC2C4)nn1-c1ccc(NCCCN(C)CCCNC(=O)COCCOCCNC(=O)CN2CCN(CC(=O)O)CCN(CC(=O)O)CCN(CC(=O)O)CC2)cc1C(C)C (centres unmarked) [Compound I-3, 2,2′,2″-(10-(19-((4-(3-((2-carboxyadamantan-2-yl)carbamoyl)-5-(2,6 dimethoxyphenyl)-1H-pyrazol-1-yl)-3-isopropylphenyl)amino)-16-methyl-2,11-dioxo-6,9-dioxa-3,12,16-triazanonadecyl)-1,4,7,10-tetraazacyclododecane-1,4,7-triyl)tracetic acid]
[1]
  Relative Binding Affinity: 519.8

## COc1cccc(OC)c1-c1cc(C(=O)NC2(C(=O)O)C3CC4CC(C3)CC2C4)nn1-c1ccc(N(C)CCCN(C)CCCN(C)C(=O)COCCOCCNC(=O)CN2CCN(CC(=O)O)CCN(CC(=O)O)CCN(CC(=O)O)CC2)cc1C(C)C (centres unmarked) [Compound I-4, 2,2′,2″-(10-(2-(4-(3-((2-carboxyadamantan-2-yl)carbamoyl)-5-(2,6-dimethoxyphenyl)-1H-pyrazol-1-yl)-3-isopropylphenyl)-6,10-dimethyl-11,20-dioxo-13,16-dioxa-2,6,10,19-tetraazahenicosan-21-yl)-1,4,7,10-tetraazacyclododecane-1,4,7-triyl)triacetic acid]
[1]
  Relative Binding Affinity: 538.2

## COc1cccc(OC)c1-c1cc(C(=O)NC2(C(=O)O)C3CC4CC(C3)CC2C4)nn1-c1ccc(N(CCCN(C)C)C(=O)COCCOCCNC(=O)CN2CCN(CC(=O)O)CCN(CC(=O)O)CCN(CC(=O)O)CC2)cc1C(C)C (centres unmarked) [Compound I-6]
[3]; FLIPR assay
  IC50 compared to comparator compound C-2: lower IC50
[3]; HEK293 cells stably expressing human NTSR-1, mean, read-out: IC50 (nM) in FLIPR Assays
  IC50: 16.2 nM
[1]
  Relative Binding Affinity: 3.1

## COc1cccc(OC)c1-c1cc(C(=O)NC2(C(=O)O)C3CC4CC(C3)CC2C4)nn1-c1ccc(CCCCN(C)CCCN(C)C(=O)CN2CCN(CC(=O)O)CCN(CC(=O)O)CCN(CC(=O)O)CC2)cc1C(C)C (centres unmarked) [Compound I-9, 2,2′,2″-(10-(2-((3-((4-(4-(3-((2-carboxyadamantan-2-yl)carbamoyl)-5-(2,6-dimethoxyphenyl)-1H-pyrazol-1-yl)-3-isopropylphenyl)butyl)(methyl)amino)propyl)(methyl)amino)-2-oxoethyl)-1,4,7,10-tetraazacyclododecane-1,4,7-triyl)triacetic acid]
[1]
  Relative Binding Affinity: 243.5

## COc1cccc(OC)c1-c1cc(C(=O)NC2(C(=O)O)C3CC4CC(C3)CC2C4)nn1-c1ccc(NCCOCCOCCNC(=O)CN2CCN(CC(=O)O)CCN(CC(=O)O)CCN(CC(=O)O)CC2)cc1C(C)C (centres unmarked) [Compound I-10, 2,2′,2″-(10-(2-((2-(2-(2-((4-(3-((2-carboxyadamantan-2-yl)carbamoyl)-5-(2,6-dimethoxyphenyl)-1H-pyrazol-1-yl)-3-isopropylphenyl)amino)ethoxy)ethoxy)ethyl)amino)-2-oxoethyl)-1,4,7,10-tetraazacyclododecane-1,4,7-triyl)triacetic acid]
[2]
  AUC (0-72 h) ratio Tumor/Blood: 58.0
  AUC (0-72 h) ratio Tumor/Kidney: 15.4
  AUC (0-72 h) ratio Tumor/Liver: 41.1
  AUC (0-72 h) ratio Tumor/Lung: 31.3
[1]
  binding affinity vs 3BP-227 (C-2) on removal of the tertiary amine motif in the linker: not compromise the binding affinity
  Relative Binding Affinity: 28.3

## COc1cccc(OC)c1-c1cc(C(=O)NC2(C(=O)O)C3CC4CC(C3)CC2C4)nn1-c1ccc(NC(=O)COCCOCCNC(=O)CN2CCN(CC(=O)O)CCN(CC(=O)O)CCN(CC(=O)O)CC2)cc1C(C)C (centres unmarked) [Compound I-12]
[1]
  Relative Binding Affinity: 11.2

## COc1cccc(OC)c1-c1cc(C(=O)NC2(C(=O)O)C3CC4CC(C3)CC2C4)nn1-c1ccc(N(CCCN(C)C)C(=O)COCCOCCNC(=O)CN2CCN(CC(=O)O)CCN(CC(=O)O)CC2)cc1C(C)C (centres unmarked) [Compound I-13]
[1]
  Relative Binding Affinity: 14.6

## COc1cccc(OC)c1-c1cc(C(=O)NC2(C(=O)O)C3CC4CC(C3)CC2C4)nn1-c1ccc(NCCCN(C)C)cc1C(C)C (centres unmarked) [II-1, 2-(5-(2,6-dimethoxyphenyl)-1-(4-((3-(dimethylamino)propyl)amino)-2-isopropylphenyl)-1H-pyrazole-3-carboxamido)adamantane-2-carboxylic acid]
[1]
  Relative Binding Affinity: 107.6
[1]; removal of the carbonyl group from the amide group
  improvement of potency vs SR142948 (C-3): ≥ 10 fold

## COc1cccc(OC)c1-c1cc(C(=O)NC2(C(=O)O)C3CC4CC(C3)CC2C4)nn1-c1ccc(NCCCCN(C)C)cc1C(C)C (centres unmarked) [II-2, 2-(5-(2,6-dimethoxyphenyl)-1-(4-((4-(dimethylamino)butyl)amino)-2-isopropylphenyl)-1H-pyrazole-3-carboxamido)adamantane-2-carboxylic acid]
[1]
  Relative Binding Affinity: 293.0
  binding affinity compared to comparator compound C-1 or C-3: higher binding affinity
[1]; [4]
  IC50: 0.158 nM

## COc1cccc(OC)c1-c1cc(C(=O)NC2(C(=O)O)C3CC4CC(C3)CC2C4)nn1-c1ccc(NCCCCCN(C)C)cc1C(C)C (centres unmarked) [II-3, 2-(5-(2,6-dimethoxyphenyl)-1-(4-((5-(dimethylamino)pentyl)amino)-2-isopropylphenyl)-1H-pyrazole-3-carboxamido)adamantane-2-carboxylic acid]
[1]
  Relative Binding Affinity: 535.2
